Source: patent US20050043333A1, “Quinazolinone derivative” (Fujisawa Pharmaceutical Co., Ltd, priority 2001, published 2005)

Molecular target: recombinant human PARP (Homo sapiens, UniProt P09874)
Test: PARP Inhibitory Activity (In Vitro Assay)
Format: biochemical
Conditions: 32P-NAD, 0.05 mM NAD, activated DNA, 15 minutes at room temperature
Experimental: Incubation was for 15 minutes at a room temperature and the reaction was stopped by the addition of 200 μl of ice-cold 20% trichloroacetic acid followed by rapid filtration through GF/B filters. The filters were treated with scintillation fluid and acid-insoluble counts were measured for quantification of unit activity.

Chain of recombinant human PARP (P09874 whole entry): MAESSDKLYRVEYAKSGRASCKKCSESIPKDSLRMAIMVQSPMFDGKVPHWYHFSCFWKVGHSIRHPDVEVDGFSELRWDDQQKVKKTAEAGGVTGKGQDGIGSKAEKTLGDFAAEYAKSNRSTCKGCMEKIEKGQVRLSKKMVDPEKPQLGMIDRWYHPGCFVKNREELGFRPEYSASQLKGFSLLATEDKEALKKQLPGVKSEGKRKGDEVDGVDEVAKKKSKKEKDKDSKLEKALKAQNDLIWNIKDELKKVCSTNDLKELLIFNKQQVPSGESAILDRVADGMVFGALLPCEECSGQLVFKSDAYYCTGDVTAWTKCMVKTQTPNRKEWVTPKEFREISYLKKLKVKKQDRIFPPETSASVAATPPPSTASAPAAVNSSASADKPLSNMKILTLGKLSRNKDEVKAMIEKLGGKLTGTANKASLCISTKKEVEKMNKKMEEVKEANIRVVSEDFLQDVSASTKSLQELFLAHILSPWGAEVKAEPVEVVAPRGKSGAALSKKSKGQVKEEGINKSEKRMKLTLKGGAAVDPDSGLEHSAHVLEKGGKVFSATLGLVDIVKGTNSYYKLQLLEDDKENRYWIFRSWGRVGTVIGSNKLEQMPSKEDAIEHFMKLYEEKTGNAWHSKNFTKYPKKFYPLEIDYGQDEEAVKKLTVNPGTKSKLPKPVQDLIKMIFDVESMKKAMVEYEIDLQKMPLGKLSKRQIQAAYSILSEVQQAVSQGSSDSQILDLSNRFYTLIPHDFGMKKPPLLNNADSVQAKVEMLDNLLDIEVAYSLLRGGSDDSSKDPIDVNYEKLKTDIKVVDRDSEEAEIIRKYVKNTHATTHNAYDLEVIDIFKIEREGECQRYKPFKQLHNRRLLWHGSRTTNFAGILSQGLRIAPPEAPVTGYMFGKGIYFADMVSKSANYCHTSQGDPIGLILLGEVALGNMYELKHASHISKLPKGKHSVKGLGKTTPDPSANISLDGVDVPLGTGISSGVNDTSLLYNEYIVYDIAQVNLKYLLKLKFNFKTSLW

For `O=c1[nH]c(C2=CC(N3CC=C(c4ccccc4)CC3)CC2)nc2ccccc12` (stereo not shown) [Compound A, 2-[3-(4-phenyl-3,6-dihydro-1(2H)-pyridinyl)-1-cyclopenten-1-y 1]-4(3H)-quinazolinone], the IC50 was < 500 nM.
